Source: patent publication US6378981B1, “Surfactant for inkjet service station wiper fluid” (Hewlett-Packard Company, priority 2000, dated 2002)

Tests used:
[1] = Separation of surfactant from PEG400, observed for seven days; format: physicochemical; details: 1 wt. % solution in PEG400, 50 ml tubes, observed daily for seven days
Method: 1 wt. % solutions of C8AO (Hexyl dimethyl amine oxide), C10AO (NN dimethyl octyl amine oxide), C14AO (NN Dimethyl dodecyl amine oxide), […] and C18AO (NN Dimethyl-N-oxide hexadecane amine) with PEG400 were prepared and placed in 50 ml tubes. The tubes were observed daily for seven days. No separation of surfactant from PEG400 was observed.

[2] = Method: Non-ionic surfactants (Tergitol 15-S-5, Surfynol465), an amphoteric surfactant (Mackam OCT-50), an anionic surfactant (Dodecylbenzene sulfonate Na) and a cationic surfactant (Cetyl trimethyl ammonium bromide) were tested for solubility in an inkjet test ink having the following formulation.
The pass/fail criteria were the absence or presence of insoluble material on the bottom on the container after three days at room temperature.

[3] = Wetting effectiveness of surfactants on orifice (nozzle) plate; format: physicochemical; parameters: key: Good: Wetting is considered “good” when a very thick layer of ink spreads out evenly on the orifice plate
Method: To determine an effective surfactant concentration range in a servicing fluid, the following procedure was used. A think uniform coat of test servicing fluid was applied to the nozzle plate. 0.5 μl of drop test ink was then applied to the coated nozzle plate and the maximum dot diameter was then measured.
Wetting is considered “good” when a very thick layer of ink spreads out evenly on the orifice plate.

With `CCCCCCCCCCCC[N+](C)(C)[O-]` [C14AO, NN Dimethyl dodecyl amine oxide] the “Separation of surfactant from PEG400” value [1] was “No separation”.
With `CCCCCCCCCCCCCCCC[N+](C)(C)C.[Br-]` [Cetyl trimethyl ammonium bromide] the Compatibility [2] was “Fail”.
For `CCCCCCCC[N+](C)(C)[O-]` [Dimethyl Octylamine oxide], the Wetting ([3]; 0.01 wt. % surfactant in PEG 300 servicing fluid) was “Good”, the Wetting ([3]; 0.1 wt. % surfactant in PEG 300 servicing fluid) was “Good” and the Wetting ([3]; 1.0 wt. % surfactant in PEG 300 servicing fluid) was “Poor”. For the same molecule, the Wetting ([3]; 2.0 wt. % surfactant in PEG 300 servicing fluid) was “Poor”, the Wetting ([3]; 3.0 wt. % surfactant in PEG 300 servicing fluid) was “Poor” and the Wetting ([3]; 4.0 wt. % surfactant in PEG 300 servicing fluid) was “Poor”. The “Separation of surfactant from PEG400” value [1] was “No separation”.
In the case of `CCCCCC[N+](C)(C)[O-]` [Hexyl dimethyl amine oxide], the Compatibility [2] is reported as “Pass” and the “Separation of surfactant from PEG400” value [1] is reported as “No separation”.
In the case of `CCCCCCCCCCCCCC[N+](C)(C)[O-]` [Myristyl dimethyl amine oxide], the “Separation of surfactant from PEG400” value [1] is reported as “No separation”.
For `CCCCCCCCCCCCCCCC[N+](C)(C)[O-]` [NN Dimethyl-N-oxide hexadecane amine], the “Separation of surfactant from PEG400” value [1] was “No separation”.
